Legend:
sorghum [1] = assay: Test C preemergence/postemergence greenhouse plant response rating 0 to 100; type: in vivo, Sorghum bicolor; conditions: POSTEMERGENCE; for Plant response rating, Sorghum: 0 to 100 scale
Outline: (§1)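 Compounds in non-phytotoxic solvent went onto sandy loam before emergence (seeded one day earlier) or onto plants at the one-to-four leaf stage. Duck salad was treated via flood water (~2.5 cm, maintained) over silt loam.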

barley [2] = assay: as above; type: in vivo, Hordeum vulgare; conditions: POSTEMERGENCE; for Plant response rating Barley Igri: 0 to 100 scale
Outline: as §1

blackgrass [3] = assay: Test B preemergence/postemergence greenhouse plant response rating 0 to 10; type: in vivo, Alopecurus myosuroides; conditions: 0 to 10 scale
Outline: (§2)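 Planted seeds are treated preemergence with compound dissolved in a non-phytotoxic solvent, while postemergence applications go onto plants of two to eighteen cm. Plants stay in the greenhouse twelve to sixteen days and are then rated visually relative to controls.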

barley [4] = assay: as above; type: in vivo, Hordeum vulgare; conditions: 0 to 10 scale
Outline: as §2

rape = assay: as above; type: in vivo, Brassica napus; conditions: 0 to 10 scale
Outline: as §2

cotton = assay: as above; type: in vivo, Gossypium hirsutum; conditions: 0 to 10 scale
Outline: as §2

sorghum [5] = assay: as above; type: in vivo, Sorghum bicolor; conditions: 0 to 10 scale
Outline: as §2

wild buckwheat = assay: Test C preemergence/postemergence greenhouse plant response rating 0 to 100; type: in vivo, Polygonum convolvulus; conditions: POSTEMERGENCE; for Plant response rating, Wild buckwheat: 0 to 100 scale
Outline: as §1

bedstraw [6] = assay: Test B preemergence/postemergence greenhouse plant response rating 0 to 10; type: in vivo, Galium aparine; conditions: 0 to 10 scale
Outline: as §2

blackgrass [7] = assay: Test C preemergence/postemergence greenhouse plant response rating 0 to 100; type: in vivo, Alopecurus myosuroides; conditions: POSTEMERGENCE; for Plant response rating, Blackgrass: 0 to 100 scale
Outline: as §1

bedstraw [8] = assay: as above; type: in vivo, Galium aparine; conditions: POSTEMERGENCE; for Plant response rating, Bedstraw: 0 to 100 scale
Outline: as §1

ryegrass = assay: as above; type: in vivo, Lolium multiflorum; conditions: POSTEMERGENCE; for Plant response rating Ryegrass: 0 to 100 scale
Outline: as §1

cheatgrass = assay: Test B preemergence/postemergence greenhouse plant response rating 0 to 10; type: in vivo, Bromus secalinus; conditions: 0 to 10 scale
Outline: as §2

pigweed = assay: Test C preemergence/postemergence greenhouse plant response rating 0 to 100; type: in vivo, Amaranthusretroflexus; conditions: POSTEMERGENCE; for Plant response rating Pigweed: 0 to 100 scale
Outline: as §1

wheat = assay: Test B preemergence/postemergence greenhouse plant response rating 0 to 10; type: in vivo, Triticum aestivum; conditions: 0 to 10 scale
Outline: as §2

sugar beet = assay: Test C preemergence/postemergence greenhouse plant response rating 0 to 100; type: in vivo, Beta vulgaris; conditions: POSTEMERGENCE; for Plant response rating, Sugar beet: 0 to 100 scale
Outline: as §1

duck salad = assay: Test C flood test plant response rating 0 to 100; type: in vivo, Heteranthera limosa; conditions: for Plant response rating Duck salad: flood test species listed under POSTEMERGENCE, 0 to 100 scale
Outline: as §1

rice = assay: Test B preemergence/postemergence greenhouse plant response rating 0 to 10; type: in vivo, Oryza sativa; conditions: 0 to 10 scale
Outline: as §2

With `CCC(C)Oc1cc(-c2nn3c(c2Cl)CCCC3)c(F)cc1Cl` (stereo not drawn) [Compound 48] the “Plant response rating, Sorghum” value (sorghum [1]; 62 g/ha) was 50, the “Plant response rating, Sorghum” value (sorghum [1]; 250 g/ha) was 70 and the “Plant response rating (0 to 100), Sorghum” value (sorghum [1]; Rate 4 g/ha) was 30. The “Plant response rating (0 to 100), Sorghum” value (sorghum [1]; Rate 16 g/ha) was 40, the “Plant response rating Barley Igri” value (barley [2]; 62 g/ha) was 30 and the “Plant response rating Barley Igri” value (barley [2]; 250 g/ha) was 40. For the same molecule, the “Plant response rating (0 to 100), Barley Igri” value (barley [2]; Rate 4 g/ha) was 10, the “Plant response rating (0 to 100), Barley Igri” value (barley [2]; Rate 16 g/ha) was 20 and the “Plant response rating, Blackgrass” value (blackgrass [3]; POSTEMERGENCE, Rate 50 g/ha) was 6. The “Plant response rating, Blackgrass” value (blackgrass [3]; POSTEMERGENCE, Rate 200 g/ha) was 6, the “Plant response rating, Blackgrass” value (blackgrass [3]; PREEMERGENCE, Rate 50 g/ha) was 0 and the “Plant response rating, Blackgrass” value (blackgrass [3]; Rate 200 g/ha, PREEMERGENCE) was 5. The “Plant response rating, Barley” value (barley [4]; POSTEMERGENCE, Rate 50 g/ha) was 7, the “Plant response rating, Barley” value (barley [4]; POSTEMERGENCE, Rate 200 g/ha) was 5 and the “Plant response rating, Barley” value (barley [4]; PREEMERGENCE, Rate 50 g/ha) was 0. For the same molecule, the “Plant response rating, Barley” value (barley [4]; Rate 200 g/ha, PREEMERGENCE) was 0, the “Plant response rating, Rape” value (rape; POSTEMERGENCE, Rate 50 g/ha) was 8 and the “Plant response rating, Rape” value (rape; PREEMERGENCE, Rate 50 g/ha) was 4. For the same molecule, the “Plant response rating, Rape” value (rape; Rate 200 g/ha, POSTEMERGENCE) was 6, the “Plant response rating, Rape” value (rape; Rate 200 g/ha, PREEMERGENCE) was 9 and the “Plant response rating, Cotton” value (cotton; POSTEMERGENCE, Rate 50 g/ha) was 10. For the same molecule, the “Plant response rating, Cotton” value (cotton; POSTEMERGENCE, Rate 200 g/ha) was 10, the “Plant response rating, Cotton” value (cotton; PREEMERGENCE, Rate 50 g/ha) was 0 and the “Plant response rating, Cotton” value (cotton; Rate 200 g/ha, PREEMERGENCE) was 9. The “Plant response rating, Sorghum” value (sorghum [5]; POSTEMERGENCE, Rate 50 g/ha) was 4, the “Plant response rating, Sorghum” value (sorghum [5]; PREEMERGENCE, Rate 50 g/ha) was 0 and the “Plant response rating, Sorghum” value (sorghum [5]; Rate 200 g/ha, POSTEMERGENCE) was 6. For the same molecule, the “Plant response rating, Sorghum” value (sorghum [5]; Rate 200 g/ha, PREEMERGENCE) was 1, the “Plant response rating, Wild buckwheat” value (wild buckwheat; 62 g/ha) was 100 and the “Plant response rating, Wild buckwheat” value (wild buckwheat; 250 g/ha) was 100. The “Plant response rating (0 to 100), Wild buckwheat” value (wild buckwheat; Rate 4 g/ha) was 60, the “Plant response rating (0 to 100), Wild buckwheat” value (wild buckwheat; Rate 16 g/ha) was 85 and the “Plant response rating, Bedstraw” value (bedstraw [6]; POSTEMERGENCE, Rate 50 g/ha) was 9. The “Plant response rating, Bedstraw” value (bedstraw [6]; POSTEMERGENCE, Rate 200 g/ha) was 9, the “Plant response rating, Bedstraw” value (bedstraw [6]; PREEMERGENCE, Rate 50 g/ha) was 3 and the “Plant response rating, Bedstraw” value (bedstraw [6]; Rate 200 g/ha, PREEMERGENCE) was 9. For the same molecule, the “Plant response rating, Blackgrass” value (blackgrass [7]; 62 g/ha) was 50, the “Plant response rating, Blackgrass” value (blackgrass [7]; 250 g/ha) was 60 and the “Plant response rating (0 to 100), Blackgrass” value (blackgrass [7]; Rate 4 g/ha) was 20. For the same molecule, the “Plant response rating (0 to 100), Blackgrass” value (blackgrass [7]; Rate 16 g/ha) was 30, the “Plant response rating, Bedstraw” value (bedstraw [8]; 62 g/ha) was 100 and the “Plant response rating, Bedstraw” value (bedstraw [8]; 250 g/ha) was 100. The “Plant response rating (0 to 100), Bedstraw” value (bedstraw [8]; Rate 4 g/ha) was 20, the “Plant response rating (0 to 100), Bedstraw” value (bedstraw [8]; Rate 16 g/ha) was 40 and the “Plant response rating Ryegrass” value (ryegrass; 62 g/ha) was 30. The “Plant response rating Ryegrass” value (ryegrass; 250 g/ha) was 50, the “Plant response rating (0 to 100), Ryegrass” value (ryegrass; Rate 4 g/ha) was 10 and the “Plant response rating (0 to 100), Ryegrass” value (ryegrass; Rate 16 g/ha) was 20. The “Plant response rating, Cheatgrass” value (cheatgrass; POSTEMERGENCE, Rate 50 g/ha) was 6, the “Plant response rating, Cheatgrass” value (cheatgrass; POSTEMERGENCE, Rate 200 g/ha) was 7 and the “Plant response rating, Cheatgrass” value (cheatgrass; PREEMERGENCE, Rate 50 g/ha) was 0. The “Plant response rating, Cheatgrass” value (cheatgrass; Rate 200 g/ha, PREEMERGENCE) was 2, the “Plant response rating Pigweed” value (pigweed; 62 g/ha) was 100 and the “Plant response rating Pigweed” value (pigweed; 250 g/ha) was 100. The “Plant response rating (0 to 100), Pigweed” value (pigweed; Rate 4 g/ha) was 80, the “Plant response rating (0 to 100), Pigweed” value (pigweed; Rate 16 g/ha) was 90 and the “Plant response rating, Wheat” value (wheat; POSTEMERGENCE, Rate 50 g/ha) was 5. For the same molecule, the “Plant response rating, Wheat” value (wheat; PREEMERGENCE, Rate 50 g/ha) was 0, the “Plant response rating, Wheat” value (wheat; Rate 200 g/ha, POSTEMERGENCE) was 6 and the “Plant response rating, Wheat” value (wheat; Rate 200 g/ha, PREEMERGENCE) was 2. For the same molecule, the “Plant response rating, Sugar beet” value (sugar beet; 62 g/ha) was 100, the “Plant response rating, Sugar beet” value (sugar beet; 250 g/ha) was 100 and the “Plant response rating (0 to 100), Sugar beet” value (sugar beet; Rate 4 g/ha) was 100. For the same molecule, the “Plant response rating (0 to 100), Sugar beet” value (sugar beet; Rate 16 g/ha) was 100, the “Plant response rating (0 to 100), Duck salad” value (duck salad; POSTEMERGENCE section, flood test, Rate 4 g/ha) was 0 and the “Plant response rating (0 to 100), Duck salad” value (duck salad; Rate 16 g/ha, under POSTEMERGENCE head (flood test species)) was 10. For the same molecule, the “Plant response rating Duck salad” value (duck salad; 62 g/ha) was 60, the “Plant response rating Duck salad” value (duck salad; 250 g/ha) was 80 and the “Plant response rating, Rice” value (rice; POSTEMERGENCE, Rate 50 g/ha) was 3. The “Plant response rating, Rice” value (rice; PREEMERGENCE, Rate 50 g/ha) was 1, the “Plant response rating, Rice” value (rice; Rate 200 g/ha, POSTEMERGENCE) was 8 and the “Plant response rating, Rice” value (rice; Rate 200 g/ha, PREEMERGENCE) was 2.

From US6358885B1, “Substituted phenylheterocyclic herbicides” (Mississippi State University, priority 1992, dated 2002)
